Assays:
Type in all cases: physicochemical
[1] = Stability on exposure to UV/HIL; conditions: solid form; 4 days
Source text: (§1) As previously noted, the N-2 form was selected due to a number of properties including chemical/physical stability, reproducibility and hygroscopicity.

[2] = Stability of the crystalline form under accelerated conditions of temperature and humidity; conditions: solid form; up to 4 weeks
Source text: as §1

[3] = Stability of milled API under high humidity and temperature open dish conditions; conditions: up to 2 weeks, 25° C./60% RH and 40° C./75% RH open
Source text: as §1

stability on exposure to UV/HIL [1]: stable | stability under accelerated conditions of temperature and humidity [2]: stable | stability under high humidity and temperature open dish conditions [3]: stable
Compound: CCn1c(C(=O)N(C2CC2)C2CC2)cc2c3c(ncn3C)c(Nc3cc(C)n(C)n3)nc21 [Form N-2, N,N-dicyclopropyl-4-(1,5-dimethyl-1H-pyrazol-3-ylamino)-6-ethyl-1-methyl-1,6-dihydroimidazo[4,5-d]pyrrolo[2,3-b]pyridine-7-carboxamide]
